pIC50: −log10 of the molar value. “Also recorded” adds a separate entry of the source. Read-outs that look alike come from different tables or passages of the source.
Legend:
DNA = conditions: in the presence of ferric ions, molecular oxygen and reducers; cited from earlier work
[1] = tested on: supercoiled form (form I) of the DNA of the bacteriophage OX 174; experiment: nuclease activity: cleavage of supercoiled DNA observed by electrophoresis on agarose gel; assay type: biochemical; conditions: for Form I / Form II / Form III: 2 min with oxidant
Protocol: In fact, only 13% of form I remains at the end of 2 min in the presence of 250 nM of the metalloporphyrin and 5 μM of potassium hydrogen persulfate, KHSO5. The cleavages are single-strandcleavages since the form II (circular duplex DNA with one cleavage) accumulates before being converted to form III (linear duplex DNA). The experimental conditions and the details of the analytical method are given in the reference Fouquet et al. (cf. page 1).
1 μM of metalloporphyrin
pre-incubation time (DNA +
a) 20 min., b) 1 min. time of incubation

L1210 cells = experiment: cytotoxic activity on murine leukemia cells of the L1210 type (inhibition of cell growth); assay type: cell-based; conditions: in vitro, only ID50 lower than 2 μM considered significant, read-out: ID50 (dose inhibiting 50% of cell growth)
Protocol: The cytotoxic activity was determined on murine leukemia cells of the L1210 type according to a method already described (by C. Paoletti, S. Cros eta al., Chem. Bio. Interact, 25, 45 […]. The effect on cell growth is expressed in terms of the dose inhibiting 50% of cell growth (ID50). Only the values of ID50 lower than 2 μM can be considered as being significant from the biological point of view.

[2] = 250 nM metalloporphyrin; 5 μM KHSO5; pre-incubation a) 20 min
[3] = 250 nM metalloporphyrin; 5 μM KHSO5; pre-incubation b) 1 min
[4] = 1 μM metalloporphyrin; 5 μM KHSO5; pre-incubation a) 20 min

## bleomycin
DNA
  nuclease activity in words: high nuclease activity

## CC(=O)[O-].CC(=O)[O-].CC(=O)[O-].CC(=O)[O-].CC(=O)[O-].C[n+]1ccc(-c2c3nc(c(-c4cc[n+](C)cc4)c4ccc([n-]4)c(-c4cc[n+](C)cc4)c4nc(c(-c5ccc([N+](C)(C)C)cc5)c5ccc2[n-]5)C=C4)C=C3)cc1.[Mn+3] [1 h) (Mn), Manganese (III) 5-(4-trimethylaminophenyl)-10, 15, 20-tris (N-methyl-4 pyridyl)-porphyrin pentaacetate]
[1]; [2]
  Form I: 13%
  Form II: 78%
  Form III: 9%
[1]; [3]
  Form I: 63%
  Form II: 37%
[1]; 250 nM metalloporphyrin, 5 μM potassium hydrogen persulfate KHSO5
  form I remaining at the end of 2 min: 13%
[1]; [4]
  Form II: 59%
  Form III: 41%
[1]; DNA in vitro, listed as 1h
  efficacy of cleavage / nuclease activity in words: very marked; also recorded: single-strandcleavages
L1210 cells
  pIC50: 6.27

## Manganese (III) 5-(4-hydroxyphenyl)-10, 15, 20-tris (N-methyl-4-pyridyl)-porphyrin tetraacetate [2 n) (Mn)]
L1210 cells
  pIC50: 6.17

## COc1ccc2[nH]c3c(C)c4cc[n+](CCCCC(=O)O)cc4c(C)c3c2c1 [5 b), N^2-(4-carboxybutyl)-9-methoxy-ellipticinium chloride]
L1210 cells; Mus musculus
  pIC50: < 4.64

From patent US5236914A, “Derivatives of metalloporphyrins and application thereof for therapeutic purposes and in preparing hybrid molecules” (Centre National de la Recherche Scientifique (CNRS), priority 1988, dated 1993)
